According to patent US10398710B2, “Method for screening regulator of mitochondrial fission” (priority 2015, dated 2019):
In brackets after ≈: the same amount, converted by molar mass. Peptide text beside a SMILES is read from it. * marks the point of attachment. Cbz = O=C(OCc1ccccc1)*; CH2F = FC*

Tests used:
[1] = tested on: MCF-7 cells; assay: Fluorescence staining of mitochondria with Tom-20; type: cell-based, human; conditions: 10 μg/mL, 24 hours, Tom-20 staining
Protocol: In other words, a culture medium containing 10 μg/mL of C-K or PPD was added to MCF-7 cells and was cultured for 24 hours. The cultured cells were fixed by adding 4% paraformaldehyde and were perforated by adding a 0.5% Triton X-100 solution, followed by staining the mitochondria using Tom-20. The stained cells were washed with PBS and were recorded with a confocal microscope to measure a level of fluorescence (FIG. 5a).

[2] = tested on: MCF-7 cells; assay: Western blot of mitochondrial fission- and fusion-related proteins; type: cell-based, human; conditions: 10 μg/mL, 24 hours
Protocol: In this regard, Western blot analysis was performed for each cultured cell to compare an expression level of the mitochondrial fission-related proteins (Drp1, Fis1, or OPA-3) and mitochondrial fusion-related proteins (Mfn1. Mfn2, or OPA1) (FIG. 5b).

[3] = tested on: MCF-7 cells; assay: Cytochrome-C release from mitochondria, immunofluorescent staining; type: cell-based, human; conditions: for increase in level of cytochrome-C release compared to doxorubicin alone / total cells from which cytochrome-C was released, ginsenoside and doxorubicin: 10 μg/mL ginsenoside 24 hours; for increase in level of cytochrome-C release compared to doxorubicin alone: then 5 μg/mL doxorubicin 4 hours; for total cells from which cytochrome-C was released, ginsenoside and doxorubicin: then 5 μg/mL doxorubicin
Protocol: A culture medium containing 10 μg/mL of C-K or PPD was added to MCF-7 cells, was cultured for 24 hours, and was then replaced with a culture medium containing 5 μg/mL of doxorubicin, followed by 0 or 4 hours of culturing. The cultured cells were fixed by adding 4% paraformaldehyde and were perforated by adding an 0.5% Triton X-100 solution, followed by 30 minutes of immunostaining using a cytochrome-C antibody. After staining, the cells were washed with PBS. Stained second antibodies were heated for 30 minutes and washed with PBS, followed by being recorded with a confocal microscope, to measure a level of fluorescence (FIG. 4a).
In this regard, whether the level of cytochrome-C release changes depending on treatment time of doxorubicin was investigated. In other words, a culture medium containing 10 μg/mL of C-K or PPD was added to MCF-7 cells, was cultured for 24 hours, and was then replaced with a culture medium containing 5 μg/mL of doxorubicin, followed by 0, 0.5, 1, 2, 4, or 6 hours of culturing. The immunofluorescent staining was performed in the same manner as previously described except the culturing time to measure the number of cytochrome-C released into cytoplasm from mitochondria (FIG. 4b). As a control group, an experiment group untreated with ginsenoside was used.

[4] = tested on: MCF-7 cells; assay: Effect of PARP or caspase-9 inhibitor on the anticancer effect of doxorubicin with C-K or PPD; type: cell-based, human; conditions: for anticancer activity of doxorubicin under PARP activity inhibitor with ginsenoside: 10 μg/mL ginsenoside and 5 μg/mL doxorubicin; for anticancer effect of doxorubicin in cells treated with the inhibitor: all control and experiment groups, 5 μg/mL doxorubicin 24 hours
Protocol: Specifically, a culture medium containing 10 μg/mL of C-K or PPD was added to MCF-7 cells already treated with Z-LEHD-FMK, an inhibitor of caspase-9, or 3-AB, an inhibitor of PARP, was cultured for 12 hours, and was then replaced with a culture medium containing 10 μg/mL of C-K or PPD and 0 g/mL or 5 μg/mL of doxorubicin, followed by 24 hours of culturing. Western blot analysis was performed using the cultured cells in the same manner as above (FIG. 3c).

[5] = tested on: MCF-7 cells; assay: WST-1 viability of MCF-7 cells treated with PPD-type ginsenoside compounds; type: cell-based, human; conditions: MCF-7, 0-200 μg/mL, 24 hours
Protocol: First, MCF-7 cells, a human breast cancer cell line, were inoculated in a DMEM culture medium containing 10% FBS and 1% penicillin/streptomycin, and were then cultured at conditions of 37° C. and 5% CO2. When the cultured MCF-7 cells were saturated, subculture thereof was followed in a three- to five-day interval.
The cultured MCF-7 cells were treated with the PPD-type ginsenoside compounds (F2, Rh2, C-K, or PPD) at various concentrations (0, 5, 10, 20, 50, 100, or 200 μg/mL) for 24 hours, and WST-1 analysis was then performed on the cells to measure viability thereof (FIG. 1). The WST-1 analysis was performed by inoculating each cell in a culture medium containing 10% EZ-Cytox and reacting at 37° C. for 1.5 hours, followed by measuring a level of water-soluble formazan dye produced by the viable cells as absorbance (450 nm) and analyzing the same to calculate the cell viability.

[6] = tested on: MCF-7 cells; assay: Western blot of apoptosis-related proteins (pJNK, cleaved-PARP, cleaved-caspase-9); type: cell-based, human; conditions: for level of cleaved-PARP, effect of ginsenoside treatment / level of cleaved-caspase-9, effect of ginsenoside treatment / level of pJNK, effect of ginsenoside treatment: 10 μg/mL ginsenoside with 5 μg/mL doxorubicin
Protocol: A culture medium containing 10 μg/mL of C-K or PPD was added to the MCF-7 cells, was cultured for 12 hours, and was then replaced with a culture medium containing 10 μg/mL of C-K or PPD and 0 g/mL or 5 μg/mL of doxorubicin, followed by 24 hours of culturing. The cultured cells were destroyed, and Western blot analysis was performed using a pJNK antibody, PARP antibody, cleaved-PARP antibody, caspase-9 antibody, or cleaved-caspase-9 antibody (FIG. 3a).
Accordingly, a culture medium containing 10 μg/mL of PPD was added to the MCF-7 cells, was cultured for 12 hours, and was then replaced with a culture medium containing 10 μg/mL of PPD and 5 μg/mL of doxorubicin, followed by 0, 0.5, 1, 2, 4, or 6 hours of culturing. Western blot analysis was performed using the cultured cells in the same manner as above (FIG. 3b). As a comparison group, cells cultured in a culture medium containing doxorubicin only was used instead of that containing both PPD and doxorubicin.

[7] = tested on: MCF-7 cells; assay: WST-1 viability of MCF-7 cells pretreated with ginsenoside, then treated with doxorubicin or tamoxifen; type: cell-based; conditions: for effect on anticancer activity of doxorubicin / anticancer activity with doxorubicin compared to only doxorubicin: 10 μg/mL ginsenoside 12 hours; for effect on anticancer activity of doxorubicin: then 5 μg/mL doxorubicin 12 hours; for anticancer activity with doxorubicin compared to only doxorubicin: then doxorubicin 0-50 μg/mL 24 hours
Protocol: Specifically, 10 μg/mL of PPD-type ginsenoside compound (F2, Rh2, C-K, or PPD) was added to the MCF-7 cells and was cultured for 12 hours. 20 μM of tamoxifen or 5 μg/mL of doxorubicin was then treated, and 12 hours of culturing was performed. Upon completion of the culturing, viability of MCF-7 cells was compared via WST-1 analysis (FIG. 2a).
Accordingly, in order to investigate whether C-K or PPD has an effect on a treatment concentration of doxorubicin, 10 μg/mL of the PPD-type ginsenoside compound (C-K or PPD) was added and cultured for 12 hours. Doxorubicin at various concentrations (0, 0.1, 0.5, 1, 2, 5, 10, and 50 μg/mL) was then treated and cultured for 24 hours, followed by comparing viabilities of the MCF-7 cells and also comparing LC50 values calculated therefrom via WST-1 analysis (FIG. 2b).

[8] = tested on: MCF-7 cells; assay: WST-1 viability of siRNA-treated MCF-7 cells treated with doxorubicin or tamoxifen; type: cell-based, human; conditions: siRNA-treated MCF-7, 5 μM doxorubicin or 20 μM tamoxifen, 24 hours
Protocol: Meanwhile, each synthesized siRNA was inoculated into MCF-7 cells and was cultured for 12 hours. The cells were again cultured in a standard culture medium in which siRNA is not contained for 48 hours, followed by treating with 5 μM doxorubicin or 20 μM tamoxifen and culturing for 24 hours. After culturing, viabilities of the MCF-7 cells were measured via WST-1 analysis (FIG. 6b). As a control group, cells cultured without treating with doxorubicin or tamoxifen were used.

[9] = 10 μg/mL PPD and 5 μg/mL doxorubicin, 0-6 hours

Row | SMILES | state of mitochondria compared to negative control group [1] | expression level of mitochondrial fission-related protein OPA-3 [2] | expression level of mitochondrial fusion-related protein Mfn2 [2] | increase in level of cytochrome-C release compared to doxorubicin alone [3] | total cells from which cytochrome-C was released, ginsenoside and doxorubicin ([3]; after 6 hours) | anticancer activity of doxorubicin under PARP activity inhibitor with ginsenoside [4] | anticancer activity against breast cancer cells (viability) [5] | level of cleaved-PARP, effect of ginsenoside treatment ([6]; 24 hours) | level of cleaved-caspase-9, effect of ginsenoside treatment ([6]; 24 hours) | level of pJNK, effect of ginsenoside treatment ([6]; 24 hours) | effect on anticancer activity of doxorubicin [7] | anticancer activity with doxorubicin compared to only doxorubicin [7] | anticancer effect of doxorubicin in cells treated with the inhibitor [4] | anticancer activity on cells with mitochondrial fission [8] | change of anticancer activity depending on siRNA (Mfn2 inhibited compared to Mfn1 inhibited) [8] | further results
1 | CC(C)=CCC[C@](C)(O[C@@H]1OC(CO)[C@@H](O)C(O)C1O)C1CC[C@]2(C)C1[C@H](O)CC1[C@@]3(C)CCC(O)C(C)(C)C3CC[C@]12C (some centres unmarked) [C-K, compound-K] | damaged | increased | decreased | higher | 20% | somewhat recovered | relatively excellent anticancer activity | not affected | noticeably increased | not affected | could enhance an anticancer activity by doxorubicin | increased |  |  |  | 
2 | NC(=O)c1cccc(N)c1 [PARP inhibitor, 3-AB, reference compound] |  |  |  |  |  |  |  |  |  |  |  |  | inhibited |  |  | 
3 | CC(C)=CCC[C@](C)(O)[C@H]1CC[C@]2(C)[C@@H]1[C@H](O)C[C@@H]1[C@@]3(C)CC[C@H](O)C(C)(C)[C@@H]3CC[C@]12C [PPD, protopanaxadiol] | damaged | increased | decreased | higher | 43% | somewhat recovered | relatively excellent anticancer activity | not affected | significantly increased | not affected | could enhance an anticancer activity by doxorubicin | increased |  |  |  | formation of cleaved-PARP over time compared to doxorubicin only [6, 9]: faster; formation of cleaved-caspase-9 over time compared to doxorubicin only [6, 9]: faster
4 | COC(=O)CC[C@H](NC(=O)[C@H](CC(C)C)NC(=O)OCc1ccccc1)C(=O)N[C@@H](Cc1cnc[nH]1)C(=O)N[C@@H](CC(=O)OC)C(=O)CF [caspase-9 inhibitor, Z-LEHD-FMK, reference compound] (Cbz-LE(OMe)HD(OMe)-CH2F) |  |  |  |  |  |  |  |  |  |  |  |  | inhibited |  |  | 
5 | COc1cccc2c1C(=O)c1c(O)c3c(c(O)c1C2=O)C[C@@](O)(C(=O)CO)C[C@@H]3O[C@H]1C[C@H](N)[C@H](O)[C@H](C)O1 [doxorubicin, reference compound] |  |  |  |  |  |  |  |  |  |  |  |  |  | significantly higher anticancer activity | significantly increased | level of cytochrome-C release compared to no doxorubicin ([3]; 5 μg/mL doxorubicin, 4 hours): increased; total cells from which cytochrome-C was released ([3]; only doxorubicin 5 μg/mL, after 6 hours): 7%; level of cleaved-PARP ([6]; 5 μg/mL doxorubicin, 24 hours): increased; level of cleaved-caspase-9 ([6]; 5 μg/mL doxorubicin, 24 hours): increased; level of pJNK ([6]; 5 μg/mL doxorubicin, 24 hours): increased; CC50 ([7]; Homo sapiens, MCF7, 24 h, read-out: LC50): ~10 µg/mL (≈ 18.4 µM)
6 | CC/C(=C(\c1ccccc1)c1ccc(OCCN(C)C)cc1)c1ccccc1 [tamoxifen] |  |  |  |  |  |  |  |  |  |  |  |  |  | showed the anticancer activity | no difference | 
